Assay results: patent US9113629B2, “4-amino-6-(4-substituted-phenyl)-picolinates and 6-amino-2-(4-substituted-phenyl)-pyrimidine-4-carboxylates and their use as herbicides” (DOW AGROSCIENCES LLC, priority 2013, dated 2015)
Where two headings read alike, the source gives them in different places.

Legend:
[1] = system: Key Broadleaf Weed and Crop Species; assay: Post-emergent Test II herbicidal activity (Table 5); assay type: in vivo; conditions: post-emergence, 336 h, post-emergent, 14 days after application; for pest or weed control at 70 g/ha: 70 g ai/ha; for pest or weed control at 140 g/ha: 140 g ai/ha
Outline: (§1)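 Injury was rated visually 14 d after treatment on a 0–100% scale against untreated controls. Test compounds, formulated with crop oil concentrate and surfactant and serially diluted down to 1/16× of the top rate, were applied by track sprayer at 187 L/ha onto first- to second-true-leaf seedlings.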

[2] = system: Key Grass and Sedge Weeds as well as Grass Crops; assay: Post-emergent Test II herbicidal activity (Table 6); assay type: in vivo; conditions: post-emergence, 336 h; for pest or weed control at 70 g/ha: application rate 70 g ai/ha; for pest or weed control at 140 g/ha: application rate 140 g ai/ha
Outline: as §1

[3] = ABUTH: velvetleaf (Abutilon theophrasti), read-out: Visual Growth Reduction (%) 14 Days After Application ABUTH
[4] = AMARE: redroot pigweed (Amaranthus retroflexus), read-out: Visual Growth Reduction (%) 14 Days After Application AMARE
[5] = BRSNN: oilseed-rape, canola (Brassica napus), read-out: Visual Growth Reduction (%) 14 Days After Application BRSNN
[6] = CHEAL: lambsquarters (Chenopodium album), read-out: Visual Growth Reduction (%) 14 Days After Application CHEAL
[7] = EPHHL: wild poinsettia (Euphorbia heterophylla), read-out: Visual Growth Reduction (%) 14 Days After Application EPHHL
[8] = HELAN: sunflower (Helianthus annuus), read-out: Visual Growth Reduction (%) 14 Days After Application HELAN
[9] = VIOTR: wild pansy (Viola tricolor), read-out: Visual Growth Reduction (%) 14 Days After Application VIOTR
[10] = CYPES: yellow nutsedge (Cyperus esculentus), read-out: Visual Growth Reduction (%) 14 Days After Application, CYPES
[11] = DIGSA: crabgrass (Digitaria sanguinalis), read-out: Visual Growth Reduction (%) 14 Days After Application, DIGSA
[12] = ECHCG: barnyardgrass (Echinochloa crus-galli), read-out: Visual Growth Reduction (%) 14 Days After Application, ECHCG
[13] = ORYSA: rice (Oryza sativa), read-out: Visual Growth Reduction (%) 14 Days After Application, ORYSA
[14] = SETFA: giant foxtail (Setaria faberi), read-out: Visual Growth Reduction (%) 14 Days After Application, SETFA
[15] = SORVU: grain sorghum (Sorghum vulgare), read-out: Visual Growth Reduction (%) 14 Days After Application, SORVU
[16] = TRZSS (wheat, Triticum aestivum), read-out: Visual Growth Reduction (%) 14 Days After Application, TRZSS
[17] = ZEAMX: maize, corn (Zea mays), read-out: Visual Growth Reduction (%) 14 Days After Application, ZEAMX

## COC(=O)c1nc(-c2ccc(C#N)cc2F)c(F)c(N)c1Cl [Compound 44, Methyl 4-amino-3-chloro-6-(4-cyano-2-fluorophenyl)-5-fluoropicolinate]
[1]; [3]
  pest or weed control at 70 g/ha: 30 to 44%
  pest or weed control at 140 g/ha: 60 to 74%
[1]; [4]
  pest or weed control at 70 g/ha: 75 to 84%
  pest or weed control at 140 g/ha: 95 to 100%
[1]; [5]
  pest or weed control at 70 g/ha: 0 to 29%
  pest or weed control at 140 g/ha: 0 to 29%
[1]; [6]
  pest or weed control at 70 g/ha: 75 to 84%
  pest or weed control at 140 g/ha: 85 to 94%
[1]; [7]
  pest or weed control at 70 g/ha: 85 to 94%
  pest or weed control at 140 g/ha: 95 to 100%
[1]; [8]
  pest or weed control at 70 g/ha: 85 to 94%
  pest or weed control at 140 g/ha: 95 to 100%
[1]; [9]
  pest or weed control at 70 g/ha: 0 to 29%
  pest or weed control at 140 g/ha: 0 to 29%
[2]; [10]
  pest or weed control at 70 g/ha: 30 to 44%
  pest or weed control at 140 g/ha: 45 to 59%
[2]; [11]
  pest or weed control at 70 g/ha: 0 to 29%
  pest or weed control at 140 g/ha: 0 to 29%
[2]; [12]
  pest or weed control at 70 g/ha: 0 to 29%
  pest or weed control at 140 g/ha: 0 to 29%
[2]; [13]
  pest or weed control at 70 g/ha: 0 to 29%
  pest or weed control at 140 g/ha: 0 to 29%
[2]; [14]
  pest or weed control at 70 g/ha: 0 to 29%
  pest or weed control at 140 g/ha: 0 to 29%
[2]; [15]
  pest or weed control at 70 g/ha: 0 to 29%
  pest or weed control at 140 g/ha: 0 to 29%
[2]; [16]
  pest or weed control at 70 g/ha: 30 to 44%
  pest or weed control at 140 g/ha: 30 to 44%
[2]; [17]
  pest or weed control at 70 g/ha: 0 to 29%
  pest or weed control at 140 g/ha: 0 to 29%
